{
  "source": "patent US20220047678A1",
  "about": "“Combination Therapy for Treatment of Liver Disease” (Gilead Sciences, Inc., priority 2020, published 2022)",
  "key": {"[1]": {"assay": "Serum lipids, change from baseline to week 24", "format": "in vivo, human", "conditions": "LS mean", "method": "In general, subjects fast (no food or drink, except water) for approximately 10 hours prior to the blood sample collection.\nAdditional tests include HIV-1 (reflex to HIV-1 RNA), HBV (HBsAg), HCV (reflex to HCV RNA) serology, homeostasis model assessment of Insulin resistance (HOMA-IR, based on fasting glucose and insulin), eGFR as calculated by MDRD, HbA1c, C-peptide, calcitonin, insulin, lipid panel, genomic sample collection, ELF™ Test, and FibroTest®. Biomarker tests include, but are not limited to C-reactive protein (CRP), NMR LipoProfile®, apolipoproteins, and adiponectin.\nImaging assessments (MRI-PDFF, liver stiffness by 2-D magnetic resonance elastography [MRE] and TE) were conducted at screening (or within 4 weeks prior to screening), and at weeks 12 and 24. TE was performed by experienced operators, and MRI-PDFF and MRE images were analyzed by a central reader as previously described [Patel et al. Hepatology. 2020; 72(1):58-71; Loomba et al. Gastroenterology. 2018; 155(5):1463-1473; Loomba et al. Hepatology. 2020 Nov. 10. doi: 10.1002/hep.31622]. Serum samples were collected at screening, baseline, and every 4 weeks through to week 24 for clinical laboratory values; blood biomarkers were assessed at screening, baseline, and weeks 12 and 24.\nAll protocol-defined, efficacy analyses were exploratory in nature and descriptive statistics are provided. Comparative analyses between combination regimens and semaglutide monotherapy were conducted post-hoc. For evaluation of changes from baseline to week 24, analysis of covariance (ANCOVA) with adjustment for baseline value and diabetes status was used, and least-squares (LS) means, LS mean differences, associated 95% confidence intervals (CI), and p-values were calculated. Proportions of binary responders were compared by Fisher's exact test."}, "[2]": {"assay": "Safety assessments (adverse events, laboratory abnormalities, vital signs) in 24-week open-label clinical study", "format": "in vivo, human", "excerpt": "This is a proof of concept, open-label study evaluating the safety, tolerability, and efficacy of monotherapy and combination regimens in subjects with NASH. Subjects meeting the study's entry criteria are randomly assigned in a 1:1:1:1:1 ratio to 1 of 5 treatment groups, with approximately 20 subjects in each group, as shown in the FIG. 2. Randomization is stratified by the presence or absence of type 2 diabetes mellitus, as determined by medical history or based on the Screening laboratory values if previously undiagnosed (hemoglobin A1c [HbA1c]≥6.5%). The study may last up to 35 weeks, which includes a 2-week Screening period, a 2 week Pre-Treatment period, up to a 24-week Treatment period, and a 7-week Follow-Up period.\nStudy drug dosing and administration is as follows, based on treatment group randomization as summarized in FIG. 2: • Treatment Group A: Semaglutide administered subcutaneously with pre-filled pen-injector once weekly. • Treatment Group B: Semaglutide administered subcutaneously with pre-filled pen-injector once weekly, one firsocostat 20 mg tablet, administered orally once daily without regard to food. • Treatment Group C: Semaglutide administered subcutaneously with pre-filled pen-injector once weekly, one cilofexor 30 mg tablet, administered orally once daily without regard to food. • Treatment Group D: Semaglutide administered subcutaneously with pre-filled pen-injector once weekly, one cilofexor 100 mg tablet, administered orally once daily without regard to food. • Treatment Group E: Semaglutide administered subcutaneously with pre-filled pen-injector once weekly, one firsocostat 20 mg tablet administered orally once daily and one cilofexor 30 mg tablet administered orally once daily, both without regard to food.\nSemaglutide was administered by subcutaneous injection once weekly with a prefilled pen-injector and was initiated at a starting dose of […], which was increased at 4-week intervals (to 0.5 mg, 1.0 mg, and 1.7 mg) until the recommended target dose of 2.4 mg was reached (from week 17 onwards). Patients who could not tolerate the planned dose-escalation schedule were encouraged to extend any single dose step for a maximum of one additional week, and to re-attempt dose escalation to 2.4 mg at least once. Cilofexor and firsocostat were given orally once daily with or without food.\nSafety assessments included adverse events, clinical laboratory assessments, vital signs, electrocardiograms (ECG), and physical examination. Clinical and laboratory adverse events were coded using the Medical Dictionary for Regulatory Activities (MedDRA), version 23.0.\nSafety analyses were performed on the safety analysis set, which included all patients who took at least one dose of any study drug. Efficacy analyses were performed on the full analysis set (FAS), which included all randomized patients who received at least one dose of any study drug. Since all dosed subjects were randomized, these two analysis sets included the same patients."}},
  "data": [
    {"smiles": "CC[C@H](C)[C@H](NC(=O)[C@H](Cc1ccccc1)NC(=O)[C@H](CCC(=O)O)NC(=O)[C@H](CCCCNC(=O)COCCOCCNC(=O)COCCOCCNC(=O)CC[C@H](NC(=O)CCCCCCCCCCCCCCCCC(=O)O)C(=O)O)NC(=O)[C@H](C)NC(=O)[C@H](C)NC(=O)[C@H](CCC(N)=O)NC(=O)CNC(=O)[C@H](CCC(=O)O)NC(=O)[C@H](CC(C)C)NC(=O)[C@H](Cc1ccc(O)cc1)NC(=O)[C@H](CO)NC(=O)[C@H](CO)NC(=O)[C@@H](NC(=O)[C@H](CC(=O)O)NC(=O)[C@H](CO)NC(=O)[C@@H](NC(=O)[C@H](Cc1ccccc1)NC(=O)[C@@H](NC(=O)CNC(=O)[C@H](CCC(=O)O)NC(=O)C(C)(C)NC(=O)[C@@H](N)Cc1cnc[nH]1)[C@@H](C)O)[C@@H](C)O)C(C)C)C(=O)N[C@@H](C)C(=O)N[C@@H](Cc1c[nH]c2ccccc12)C(=O)N[C@@H](CC(C)C)C(=O)N[C@H](C(=O)N[C@@H](CCCNC(=N)N)C(=O)NCC(=O)N[C@@H](CCCNC(=N)N)C(=O)NCC(=O)O)C(C)C", "note": "[Semaglutide 2.4 mg, Semaglutide]", "values": [
      {"measurement": "HDL cholesterol, least squares mean change from baseline to week 24", "setting": "[1]", "value": -1, "unit": "mg/dL"},
      {"measurement": "LDL cholesterol, least squares mean change from baseline to week 24", "setting": "[1]", "value": -9, "unit": "mg/dL"},
      {"measurement": "Total cholesterol, least squares mean change from baseline to week 24", "setting": "[1]", "value": -15, "unit": "mg/dL"},
      {"measurement": "Triglycerides, least squares mean change from baseline to week 24", "setting": "[1]", "value": -28, "unit": "mg/dL"},
      {"measurement": "VLDL cholesterol, least squares mean change from baseline to week 24", "setting": "[1]", "value": -7, "unit": "mg/dL"},
      {"measurement": "Abdominal distension", "setting": "[2]; human, in vivo", "value": 0, "unit": "n"},
      {"measurement": "Gastroenteritis", "setting": "[2]; human, in vivo", "value": 0, "unit": "n"},
      {"measurement": "Gastroesophageal reflux disease", "setting": "[2]; human, in vivo", "value": 0, "unit": "n"},
      {"measurement": "Hypoglycaemia", "setting": "[2]; human, in vivo", "value": 0, "unit": "n"},
      {"measurement": "Laboratory abnormalities, Grade 3", "setting": "[2]; human, in vivo", "value": 0, "unit": "n"},
      {"measurement": "Laboratory abnormalities, Grade 4", "setting": "[2]; human, in vivo", "value": 0, "unit": "n"},
      {"measurement": "Pruritus (adverse event of interest)", "setting": "[2]; human, in vivo", "value": 0, "unit": "n"},
      {"measurement": "Serious adverse events (nature)", "setting": "[2]; human, in vivo", "value": "grade 3 diarrhea and vomiting"},
      {"measurement": "Death", "setting": "[2]; patients", "value": 0, "unit": "n"}
    ]}
  ]
}
